Residues, ends and D or L forms follow the SMILES beside them. *: point of attachment. Cbz = O=C(OCc1ccccc1)*
Structure (SMILES)	melting point [°C]
CC(C)(C)OC(=O)/C(=C/c1ccccc1Cl)C(=O)c1ccccc1O	75 to 78
OCc1cccnc1Oc1ccc(F)cc1	70 to 72
CC(=O)NC1=NN(c2ccccc2)C(C)C1 (stereo not given)	144 to 146
N[C@@]1(C(=O)O)C[C@H](Oc2ccc(Cl)cc2Cl)[C@H]2[C@H](C(=O)O)[C@H]21 (relative stereo)	> 250
O=C(NCCC(F)=C(F)F)C(=O)NCCC(F)=C(F)F	139 to 141
O=C(NCc1ccccc1)c1csc(-n2ccc(OCc3ccccc3)cc2=O)c1	162 to 163
Cc1cccn2cc(C(C)C)c(S(=O)(=O)c3ccc(O)cc3)c12	191 to 193
O=C(c1ccc(O)c(F)c1)N(c1ccc(O)cc1)c1ccc(F)cc1	110 to 112
O=c1c(Cc2cccnc2)cn2c3c(cc(Cl)cc13)Oc1cc(Cl)ccc1-2	170 to 171
Cc1c(C#N)sc2nc(-c3ccncc3)nc(N(C)CCO)c12	194 to 195
N#Cc1cccc(N2C(=O)CC(=O)Nc3c2ccc2ccccc32)c1	220 to 222
CC(C)(N)CNC(=O)CNC(=O)c1ccccc1	80 to 84
N=C(N)NCCCC(NC(=O)C1CCCN1C(=O)OCc1ccccc1)C(=O)O (stereo not drawn) (Cbz-Pro-Arg-OH; configuration not given here)	137 to 140
COc1ccc2c(c1)[nH]c1c(C)nc3c(c12)C(=O)CC(C)(C)C3	250 to 252
C[C@]12C(=O)[C@]3(C)O[C@]3(C)C(=O)[C@H]1[C@H]1C=C[C@@H]2C1 (racemic)	72 to 73
O=c1[nH]c2cccc(Cl)c2c(=O)n1CCCN1CC=C(c2ccc(Cl)cc2)CC1	190 to 194
CS(=O)(=O)Cc1cc(C(O)CNCCCCCCNCC(O)c2ccc(OCc3ccccc3)c(CS(C)(=O)=O)c2)ccc1OCc1ccccc1 (stereo not given)	146 to 148
CC(=O)N(CC(C)C)C1NC(=O)N(c2ccc(C)cc2)C(=O)N1	159 to 160
COc1ccc2c(c1)C(=NNc1ccc(S(N)(=O)=O)cc1)C(=O)N2	> 250
C[C@H](CSC(=O)c1ccccc1)C(=O)O	63 to 65

Structure (SMILES)	melting point [°C]
Cc1ccc2c(N)c(C#N)sc2n1	241 to 242
O=C1CC2CCCCC2C(=O)C1C(=O)c1ccc(Cl)cc1[N+](=O)[O-] (stereo not given)	112
COc1ccc2c(c1OC)CCC2c1c[nH]cn1 (stereo not given)	156 to 158
CC(=O)Nc1cccc(Br)n1	157
CCCc1c(C2=NN=C(C)Cc3cc4[nH]c(=O)oc4cc32)sc2ccccc12	307 to 308
COc1ccc(S(N)(=O)=O)cc1C(=O)Cl	148 to 150
Cn1cc(-c2ccccc2)c(=O)c(S(=O)(=O)c2ccccc2)c1	218 to 220
CCc1ccc(S(=O)(=O)Nc2cccnc2Nc2ccccc2)cc1	138 to 139
COc1ccc(CS(=O)(=O)c2cc(OC)c(OC)c(OC)c2)cc1	95 to 97
Clc1ccc(C(=NN=Cc2cccnc2)SSC(=NN=Cc2cccnc2)c2ccc(Cl)cc2)cc1	143 to 145
CCS(=O)c1ccc(-c2coc3ccc(-c4nnc(C)o4)nc23)cc1 (stereo not given)	207 to 208
O=C(Oc1ccc(S(=O)(=O)Nc2ccccc2)cc1)c1ccc(CCBr)cc1	156 to 157
Cc1c(Br)c(NC(=O)CC(C)(C)C)c(C)c2c1OCC2c1ccc(C(C)C)cc1 (stereo not given)	174 to 175
CCOc1ccc(C2(c3ccc(OC)cc3)CC2(Cl)Cl)cc1 (stereo not given)	114 to 117
COC(=O)c1nsnc1Br	57 to 58
Nc1cccc(C(=O)NCC23CC4CC(CC(C4)C2)C3)c1Cl	154
CC(C)C[C@@H](C(=O)N1CCN(C(c2ccc(F)cc2)c2ccc(F)cc2)CC1)N(Cc1ccc(OC(C)(C)C)cc1)Cc1ccc(OC(C)(C)C)cc1	62 to 67
COc1ncncc1[N+](=O)[O-]	193 to 195
COC(=O)c1cn(CCO)nc1[N+](=O)[O-]	93 to 95
CCS(=O)(=O)Nc1ccc(C(O)CNCC2CCc3ccccc3C2=O)cc1 (stereo not given)	120 to 122

The remaining lines, values ahead:

melting point [°C]	Structure (SMILES)
46 to 49	Cc1nc(-c2cc(C)c(OCCCc3cccnc3)c(C)c2)no1
254 to 264	Cn1ncnc1-n1cc(C(=O)O)c(=O)c2cc(F)c(F)cc21
193 to 195	Cc1cc(=O)n(C)c2cc(OCCCN3CCC(NC(=O)c4ccccc4)CC3)ccc12
153 to 155	CCCCC(CNC(=O)Nc1c(C(C)C)cccc1C(C)C)c1ccc2c(c1)OCO2 (stereo not given)
89.2 to 89.5	COc1cc2c(cc1OC)CN(CCCCNC(=O)c1cc(C)ccc1OCCOCCF)CC2
76 to 78	CCCCCNC(=O)n1nc(Oc2ncc(C(F)(F)F)cc2Cl)c(Cl)c1C
55 to 57	COC(C)Cn1c(C)nc2cnc3ccccc3c21 (stereo not given)
192 to 194	CCc1nc(O)c2c(n1)c(C)nn2CC
167	O=C1Nc2cccnc2N(C(=O)NCCN2CCCCC2CN2CCOCC2)c2ccccc21 (stereo not given)
> 250	CCOC(=O)Cn1c(=O)c(=O)[nH]c2cc(C(F)(F)F)c(-n3ccc(C=NO)c3)cc21
97 to 98	Cc1[nH]cnc1CSCCNC(=O)NCCCCN(C)CCC(c1ccc(Cl)cc1)c1ccccn1 (stereo not given)
135 to 139	COc1ccc(C2=NN(Cc3ccc(C(=O)O)cc3)C(=O)[C@H]3CCCC[C@@H]23)cc1OC (relative stereo)
139 to 145	CCCCN1CCC(CNC(=O)c2ccc(N)n3cc(CC)nc23)CC1
174 to 176	O=C(Oc1ccc(Cl)cn1)c1cc2ccccc2sc1=O
53 to 55	COC(=O)c1cnc(Cl)c2ccccc12
96 to 97	CCOP(=O)(/C=C/c1cn(-c2ccccc2)nc1OCc1ccc(OCc2coc(-c3ccco3)n2)c(OC)c1)OCC
152 to 153	CCCn1cc(NC(=O)C(N)c2ccc3c(c2)C(C)(C)CCC3(C)C)cc1C(=O)OC (stereo not given)
186	CCOC(=O)N(c1ccc(Cl)cc1Cl)c1ccc(Cl)cc1-n1nc(C(=O)O)nc1CCl
151 to 152	CN1C(=O)N(c2c(Cl)cccc2Cl)Cc2cnc(NCc3ccc(CN)cc3)nc21
205	COc1ccccc1NC(=O)Nc1nc(Cl)nc(N(CCC(=O)O)Cc2cccc(C)c2)n1
142	Cc1cc(Cc2ccc(Cl)cc2)n(O)c(=O)c1
108	COc1ccc2c(c1)CCCCN2C(=O)Nc1cccc(C(F)(F)F)c1
240 to 243	CCC1(CC(=O)O)OCC(=O)c2c1[nH]c1cccc(Cl)c21 (stereo not given)
212 to 215	O=C(CC1CC1)NC[C@H]1CN(c2ccc3c(c2)CCCc2cn[nH]c2-3)C(=O)O1
78	CCN(CC)C(=O)c1cc(-c2ccccc2)c2sccc2c1
129 to 130	O=Cc1cccc(-c2nnc(-c3ccc(C(F)(F)F)cc3)o2)c1
159 to 161	CC(=O)Oc1ccccc1C(=O)Nc1ccc(-n2nc(C(F)(F)F)cc2C(F)(F)F)cc1
149 to 151	Cc1cccc(-c2n[nH]cc2-c2ccc(F)c(-c3ccc(C(C)O)cn3)c2)n1 (stereo not given)
108 to 110	CC(C)(C)c1nnc(-c2nn(-c3ccc(F)cc3F)c3c2C2CCC3C2)o1 (stereo not given)
140 to 141	CCOC(=O)c1cc2n(c1)CNc1ccccc1-2

— a melting point compilation (Tetko et al.; mined from patent text by program, amines drawn as free bases though some values may be those of a salt)
